Results as given in patent publication US20080021069A1, “Receptor Function Regulating Agent” (TAKEDA PHARMACEUTICAL COMPANY LIMITED, priority 2004, published 2008).

Legend:
rat pancreatic islet = test: Insulin secretion suppressive activity using rat pancreatic islet (palmitic acid stimulation); type: cell-based; settings: glucose 16 mM, compound 10 μM, 30 min, mean ± SD (n = 4)
Experimental: The effect of the compound of the present invention on the insulin secretion from the rat pancreatic islet, which is induced by palmitic acid stimulation, was evaluated.
Male SD rats (7-week-old, Clea Japan, Inc.) were anesthetized with Nembutal (50 mg/kg, i.p.) and subjected to laparotomy. While confirming and following the course of the common bile duct to the peripheral thereof, and the duct was ligated at the liver side immediately from the opening of the duodenum. Then, the common bile duct was detached from the surrounding tissue on the duodenum side from the hepatic duct bifurcation and a thread was placed thereon. An indwelling needle (22G, manufactured by TERUMO CORPORATION) was inserted into the common bile duct at a position on the liver side from this part and fixed by ligation with the thread placed earlier thereon. 10 ml of 150 mg/ml collagenase (manufactured by Wako Pure Chemical Industries, Ltd., for cell dispersion)-Hank's Balanced Salt Solution (HBSS, manufactured by Invitrogen)-1% Bovine Serum Albumin (BSA, manufactured by Wako Pure Chemical Industries, Ltd.) −0.01 mg/ml DnaseI (manufactured by Roche Molecular Biochemicals)-2.5% N-2-Hydroxyethylpiperazine-N′-2-Ethane Sulfonic Acid (HEPES, manufactured by Invitrogen) was injected from the common bile duct. […]

human GPR40 = biological target: T1, human GPR40 (Homo sapiens, UniProt O14842); test: GPR40 antagonist activity with changes in intracellular calcium concentration as index (NFAT-luciferase reporter, CHO(dhfr-)/GPR40-NFAT-Luc cells); type: cell-based; settings: CHO cell line expressing human GPR40, NFAT-Luc reporter; GPR40 agonist 3-(4-((6-benzyloxy-2',6'-dimethyl-biphenyl-3-yl)methoxy)phenyl)propanoic acid 40 nM; 4 hr culture; 0.1% fatty acid-free BSA
T1 construct: expressed in transfected cells; host or cells: CHO(dhfr-) cells: line CHO-hGPR40 No. 104 of WO2004/041266, with a stably expressed NFAT-TA-Luc reporter (CHO(dhfr-)/GPR40-NFAT-Luc)
T1 sequence (O14842 whole entry): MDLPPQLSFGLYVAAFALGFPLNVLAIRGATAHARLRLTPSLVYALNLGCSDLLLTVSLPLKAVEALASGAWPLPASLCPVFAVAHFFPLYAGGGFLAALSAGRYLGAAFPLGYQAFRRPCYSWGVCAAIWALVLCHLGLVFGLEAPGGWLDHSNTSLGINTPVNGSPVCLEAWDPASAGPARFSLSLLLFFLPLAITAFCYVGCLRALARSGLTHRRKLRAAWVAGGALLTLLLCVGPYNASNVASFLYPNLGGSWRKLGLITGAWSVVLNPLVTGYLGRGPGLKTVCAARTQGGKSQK
Text: Evaluation of GPR40 antagonist activity with changes in intracellular calcium concentration as index
An assay system of GPR40 antagonist was established as follows. In this assay system, as the GPR40 agonist, 3-(4-((6-benzyloxy-2′,6′-dimethyl-biphenyl-3-yl)methoxy)phenyl)propanoic acid (compound described in Example 340 of WO2004/041266) was used.
First, NFAT-TA was cut out from pNFAT-TA-Luc (manufactured by BD Bioscience Clontech) with HindIII and NheI, the recovered fragment was inserted into pGL3 basic neo digested with HindIII and NheI to give plasmid:pGL3 basic neo NFAT-TA-Luc.
This plasmid was used for “the CHO cell line (CHO-hGPR40 No. 104), which was made to express human GPR40” described in WO2004/041266, and a cell line CHO(dhfr-)/GPR40-NFAT-Luc, wherein a reporter gene was stably expressed by a method known per se, was prepared.
This cell line was diluted with a medium (nucleic acid-free MEM (Minimum Essential Medium)—α medium added with dialyzed FBS (Fetal Bovine Serum) to a final concentration of 10%) in such a manner that 2×10^4 cells/100 μl would be contained, dispensed to a white walled 96 well plate (manufactured by Coster) by 100 μl per well, and cultured overnight in a CO2 incubator. Then the medium was removed by suction from the 96 well plate, and a 10 mM test compound-dimethyl sulfoxide (manufactured by Wako Pure Chemical Industries, Ltd.) solution diluted with a medium (nucleic acid-free MEM—α medium added with bovine serum albumin (BSA) free of fatty acid to a final concentration of 0.1%) to each concentration was added by 50 μl per well. Further, 3-(4-((6-benzyloxy-2′,6′-dimethyl-biphenyl-3-yl)methoxy)phenyl)propanoic acid diluted with a medium (nucleic acid-free MEM-α (medium added with BSA free of fatty acid to a final concentration of 0.1%) to a final concentration of 40 nM was added to the 96 well plate by 50 μl per well.
After culture in a CO2 incubator for 4 hr, the culture medium was removed from the 96 well plate. Then, PicaGene (manufactured by TOYO INK MFG. CO., LTD.) was added to the 96 well plate, and the luciferase activity was determined using PerkinElmer ARVO (trade name, manufactured by PerkinElmer), based on which changes in the intracellular calcium concentration were evaluated. After assay of luciferase activity, nonlinear regression analysis was performed using PRISM 3 (trade name, manufactured by GraphPad) and IC50 value was calculated with changes in the intracellular calcium concentration as an index.
In the same manner as in Experimental Example 1, the IC50 value of the compound of the present invention was calculated.

IC50 (human GPR40) [nM]	melting point [°C]	SMILES	insulin secretion amount (rat pancreatic islet; palmitic acid 0 mM) [pg/ng DNA]	insulin secretion amount (rat pancreatic islet; palmitic acid 1 mM) [pg/ng DNA]
< 100	129 to 130	CCOc1ccc(-n2c(SCc3ccc(Cl)cc3)nc3ccc(Cl)cc32)cc1 [Example 10, 6-chloro-2-[(4-chlorobenzyl)thio]-1-(4-ethoxyphenyl)-1H-benzimidazole]	353 ± 122	369 ± 141
< 100	118 to 120	FC(F)(F)COc1ccc(-n2c(NCc3ccc(Br)cc3)nc3cc(Cl)c(Cl)cc32)cc1 [Example 103, N-(4-Bromobenzyl)-5,6-dichloro-1-[4-(2,2,2-trifluoroethoxy)phenyl]-1H-benzimidazol-2-amine]		
< 100	158 to 159	CC(C)(C)c1ccc(CNc2nc3cc(Cl)c(Cl)cc3n2-c2ccc(OC(F)(F)F)cc2)cc1 [Example 105, N-(4-tert-butylbenzyl)-5,6-dichloro-1-[4-(trifluoromethoxy)phenyl]-1H-benzimidazol-2-amine]		
< 100	130 to 133	CC(C)(C)c1ccc(CNc2nc3ccc(Cl)cc3n2-c2ccc(OC(F)(F)C(F)F)cc2)cc1.Cl [Example 106, N-(4-tert-Butylbenzyl)-6-chloro-1-[4-(1,1,2,2-tetrafluoroethoxy)phenyl]-1H-benzimidazol-2-amine hydrochloride]		
< 100	141 to 142	COc1ccc(-n2c(SCc3ccc(Cl)cc3)nc3cc(Cl)c(Cl)cc32)cc1 [Example 108, 5,6-Dichloro-2-[(4-chlorobenzyl)thio]-1-(4-methoxyphenyl)-1H-benzimidazole]		
< 100	149 to 150	CC(C)Oc1ccc(-n2c(SCc3ccc(Cl)cc3)nc3cc(Cl)c(Cl)cc32)cc1 [Example 110, 5,6-Dichloro-2-[(4-chlorobenzyl)thio]-1-(4-isopropoxyphenyl)-1H-benzimidazole]		
< 100	131 to 132	CCOc1ccc(-n2c(SCc3ccc(Cl)cc3)nc3cc(Cl)c(Cl)cc32)cc1 [Example 111, 5,6-Dichloro-2-[(4-chlorobenzyl)thio]-1-(4-ethoxyphenyl)-1H-benzimidazole]		
< 100	119 to 120	CCCOc1ccc(-n2c(SCc3ccc(Cl)cc3)nc3cc(Cl)c(Cl)cc32)cc1 [Example 112, 5,6-Dichloro-2-[(4-chlorobenzyl)thio]-1-(4-propoxyphenyl)-1H-benzimidazole]		
< 100	104 to 112	CCCOc1ccc(-n2c(SCc3ccc(Cl)cc3)nc3cc(Cl)ccc32)cc1.Cl [Example 121, 5-Chloro-2-[(4-chlorobenzyl)thio]-1-(4-propoxyphenyl)-1H-benzimidazole hydrochloride]		
< 100	90 to 92	FC(F)(F)COc1ccc(-n2c(SCc3ccc(Cl)cc3)nc3cc(Cl)c(Cl)cc32)cc1 [Example 131, 5,6-Dichloro-2-[(4-chlorobenzyl)thio]-1-[4-(2,2,2-trifluoroethoxy)phenyl]-1H-benzimidazole]		
< 100	129 to 130	Clc1ccc(CSc2nc3ccc(Cl)cc3n2-c2ccc(C3OCCO3)cc2)cc1 [Example 132, 6-Chloro-2-[(4-chlorobenzyl)thio]-1-[4-(1,3-dioxolan-2-yl)phenyl]-1H-benzimidazole]		
< 100	139 to 140	FC(F)C(F)(F)Oc1ccc(-n2c(SCc3ccc(Cl)cc3)nc3ccc(Cl)cc32)cc1 [Example 135, 6-Chloro-2-[(4-chlorobenzyl)thio]-1-[4-(1,1,2,2-tetrafluoroethoxy)phenyl]-1H-benzimidazole]		

SMILES	IC50 (human GPR40) [nM]	melting point [°C]	insulin secretion amount (rat pancreatic islet; palmitic acid 0 mM) [pg/ng DNA]	insulin secretion amount (rat pancreatic islet; palmitic acid 1 mM) [pg/ng DNA]
CCCCOc1ccc(-n2c(SCc3ccc(Cl)cc3)nc3cc(Cl)c(Cl)cc32)cc1 [Example 113, 1-(4-Butoxyphenyl)-5,6-dichloro-2-[(4-chlorobenzyl)thio]-1H-benzimidazole]	< 100	99 to 100		
CCCCOc1ccc(-n2c(SCc3ccc(Cl)cc3)nc3cc(Cl)ccc32)cc1.Cl [Example 122, 1-(4-Butoxyphenyl)-5-chloro-2-[(4-chlorobenzyl)thio]-1H-benzimidazole hydrochloride]	< 100	83 to 89		
